Test results published in the supplement of paper PMC10307832.

Key:
Experiment in all cases: relative viability (nuclei count vs DMSO), 5 days (fraction); higher = more cells survive
NCI-H661 = tested on: NCI-H661
Outline: (§1)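 Nuclei were stained with Hoechst during a one-step fixation (final 0.05% Triton X-100, 1% formaldehyde, 1 ug/ml Hoechst) carried out 5 days after dosing, then counted on 4× images. The cells, lung cancer lines in 1536-well plates, had been dosed by pin tool the day after seeding with one drug alone or a fixed anchor-drug dose plus five library-drug doses (not always all listed) in √10 steps. Relative viability is the nuclei count in treated wells divided by that in vehicle wells, and each value is the median of duplicate plates.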

201T = tested on: 201T
Outline: as §1

NCI-H1666 = tested on: NCI-H1666
Outline: as §1

BEN = tested on: BEN
Outline: as §1

NCI-H2170 = tested on: NCI-H2170
Outline: as §1

NCI-H2009 = tested on: NCI-H2009
Outline: as §1

HCC-366 = tested on: HCC-366
Outline: as §1

CAL-12T = tested on: CAL-12T
Outline: as §1

EKVX = tested on: EKVX
Outline: as §1

NCI-H460 = tested on: NCI-H460
Outline: as §1

COR-L 105 = tested on: COR-L 105
Outline: as §1

NCI-H441 = tested on: NCI-H441
Outline: as §1

NCI-H3122 = tested on: NCI-H3122
Outline: as §1

NCI-H727 = tested on: NCI-H727
Outline: as §1

PC-14 = tested on: PC-14
Outline: as §1

NCI-H1650 = tested on: NCI-H1650
Outline: as §1

SW 900 = tested on: SW 900
Outline: as §1

LOU-NH91 = tested on: LOU-NH91
Outline: as §1

ABC-1 = tested on: ABC-1
Outline: as §1

LK-2 = tested on: LK-2
Outline: as §1

HARA = tested on: HARA
Outline: as §1

NCI-H1437 = tested on: NCI-H1437
Outline: as §1

COc1nc(C)cnc1NS(=O)(=O)c1cccnc1-c1ccc(-c2nnco2)cc1 [Zibotentan] + COc1cc2c(Oc3ccc(NC(=O)C4(C(=O)Nc5ccc(F)cc5)CC4)cc3F)ccnc2cc1OCCCN1CCOCC1 [Foretinib] (partner 0.25 µM)
relative viability (NCI-H661; first compound 0.08 µM): 1.01 | relative viability (NCI-H661; first compound 0.253 µM): 0.969 | relative viability (NCI-H661; first compound 0.8 µM): 0.995 | relative viability (NCI-H661; first compound 2.53 µM): 1.01 | relative viability (201T; first compound 0.08 µM): 1.16 | relative viability (201T; first compound 0.253 µM): 0.956 | relative viability (201T; first compound 0.8 µM): 1.04 | relative viability (201T; first compound 2.53 µM): 1.15 | relative viability (NCI-H1666; first compound 0.08 µM): 0.902 | relative viability (NCI-H1666; first compound 0.253 µM): 0.918 | relative viability (NCI-H1666; first compound 0.8 µM): 0.938 | relative viability (NCI-H1666; first compound 2.53 µM): 0.972 | relative viability (BEN; first compound 0.08 µM): 0.739 | relative viability (BEN; first compound 0.253 µM): 0.475 | relative viability (BEN; first compound 0.8 µM): 0.819 | relative viability (BEN; first compound 2.53 µM): 0.639 | relative viability (NCI-H2170; first compound 0.08 µM): 1.05 | relative viability (NCI-H2170; first compound 0.253 µM): 1.07 | relative viability (NCI-H2170; first compound 0.8 µM): 1.03 | relative viability (NCI-H2170; first compound 2.53 µM): 0.969 | relative viability (NCI-H2009; first compound 0.08 µM): 1.25 | relative viability (NCI-H2009; first compound 0.253 µM): 1.24 | relative viability (NCI-H2009; first compound 0.8 µM): 1.28 | relative viability (NCI-H2009; first compound 2.53 µM): 1.35 | relative viability (HCC-366; first compound 0.08 µM): 0.977 | relative viability (HCC-366; first compound 0.253 µM): 0.903 | relative viability (HCC-366; first compound 0.8 µM): 0.964 | relative viability (HCC-366; first compound 2.53 µM): 0.976 | relative viability (CAL-12T; first compound 0.08 µM): 1.21 | relative viability (CAL-12T; first compound 0.253 µM): 0.923 | relative viability (CAL-12T; first compound 0.8 µM): 1.13 | relative viability (CAL-12T; first compound 2.53 µM): 1.12 | relative viability (EKVX; first compound 0.08 µM): 0.892 | relative viability (EKVX; first compound 0.253 µM): 0.762 | relative viability (EKVX; first compound 0.8 µM): 1.11 | relative viability (EKVX; first compound 2.53 µM): 0.875 | relative viability (NCI-H460; first compound 0.08 µM): 1.09 | relative viability (NCI-H460; first compound 0.253 µM): 0.827 | relative viability (NCI-H460; first compound 0.8 µM): 0.986 | relative viability (NCI-H460; first compound 2.53 µM): 1.05 | relative viability (COR-L 105; first compound 0.08 µM): 1.31 | relative viability (COR-L 105; first compound 0.253 µM): 0.996 | relative viability (COR-L 105; first compound 0.8 µM): 1.1 | relative viability (COR-L 105; first compound 2.53 µM): 1.03 | relative viability (NCI-H441; first compound 0.08 µM): 1.11 | relative viability (NCI-H441; first compound 0.253 µM): 0.745 | relative viability (NCI-H441; first compound 0.8 µM): 1.03 | relative viability (NCI-H441; first compound 2.53 µM): 1.04 | relative viability (NCI-H3122; first compound 0.08 µM): 1.02 | relative viability (NCI-H3122; first compound 0.253 µM): 0.975 | relative viability (NCI-H3122; first compound 0.8 µM): 0.983 | relative viability (NCI-H3122; first compound 2.53 µM): 1.02 | relative viability (NCI-H727; first compound 0.08 µM): 1.07 | relative viability (NCI-H727; first compound 0.253 µM): 0.862 | relative viability (NCI-H727; first compound 0.8 µM): 0.893 | relative viability (NCI-H727; first compound 2.53 µM): 0.811 | relative viability (PC-14; first compound 0.08 µM): 1.03 | relative viability (PC-14; first compound 0.253 µM): 0.897 | relative viability (PC-14; first compound 0.8 µM): 0.924 | relative viability (PC-14; first compound 2.53 µM): 1 | relative viability (NCI-H1650; first compound 0.08 µM): 1.04 | relative viability (NCI-H1650; first compound 0.8 µM): 1.29 | relative viability (NCI-H1650; first compound 2.53 µM): 1.28 | relative viability (SW 900; first compound 0.08 µM): 0.997 | relative viability (SW 900; first compound 0.253 µM): 0.811 | relative viability (SW 900; first compound 0.8 µM): 0.887 | relative viability (SW 900; first compound 2.53 µM): 0.857 | relative viability (LOU-NH91; first compound 0.08 µM): 0.903 | relative viability (LOU-NH91; first compound 0.253 µM): 0.841 | relative viability (LOU-NH91; first compound 0.8 µM): 0.969 | relative viability (LOU-NH91; first compound 2.53 µM): 0.888 | relative viability (ABC-1; first compound 0.08 µM): 0.9 | relative viability (ABC-1; first compound 0.253 µM): 0.936 | relative viability (ABC-1; first compound 0.8 µM): 1.06 | relative viability (ABC-1; first compound 2.53 µM): 1.16 | relative viability (LK-2; first compound 0.08 µM): 1.37 | relative viability (LK-2; first compound 0.253 µM): 1.31 | relative viability (LK-2; first compound 0.8 µM): 0.895 | relative viability (LK-2; first compound 2.53 µM): 1.17 | relative viability (HARA; first compound 0.08 µM): 1 | relative viability (HARA; first compound 0.253 µM): 0.743 | relative viability (HARA; first compound 0.8 µM): 0.883 | relative viability (HARA; first compound 2.53 µM): 0.874 | relative viability (NCI-H1437; first compound 0.08 µM): 1.27 | relative viability (NCI-H1437; first compound 0.253 µM): 1.18 | relative viability (NCI-H1437; first compound 0.8 µM): 1.26 | relative viability (NCI-H1437; first compound 2.53 µM): 1.26
